Laboratory results reported in patent publication US10898469B2, “Imidazolylamide derivative” (Sumitomo Dainippon Pharma Co., Ltd., priority 2016, dated 2021).
Structures can show the parent of a compound that is named as a salt. Where two headings read alike, the source gives them in different places.

Tests used:
Format in all cases: cell-based, human
HCT-116 cells [1] = experiment: Inhibition test for sphere-forming ability of cancer cells (Test Example 1), HCT-116; settings: for IC50 / viability at 1 µM / (100%-inhibition rate of cell proliferation) at 1 μmol/L, HCT-116: HCT-116 cells; for IC50: concentration for 50% inhibition of cell proliferation, read-out: IC50 (μmol/L) HCT-116 (Sphere IC50 value); for inhibitory effect on the sphere-forming ability of cancer cells: Test Example 1, summary in words, cell line not given (HCT-116, HT-29, FaDu tested); for viability at 1 µM: read-out: (100%-inhibition rate of cell proliferation) at 1 μmol/L; for viability at 1 µM / (100%-inhibition rate of cell proliferation) at 1 μmol/L, HCT-116: 1 μmol/L, value with %
Summary of the method: (§1)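 Under non-adherent, serum-free conditions with growth factors (EGF 20 ng/mL, bFGF 10 ng/mL), 350-800 cells per well formed spheres in the presence of test compound at 0.1% DMSO. Viable cell number after 4 days, by CellTiter-Glo, defined the 50% inhibitory concentration.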

FaDu cells = experiment: Inhibition test for sphere-forming ability of cancer cells (Test Example 1), FaDu; settings: for IC50: concentration for 50% inhibition of cell proliferation, read-out: IC50 (μmol/L) FaDu (Sphere IC50 value); for viability at 1 µM: read-out: (100%-inhibition rate of cell proliferation) at 1 μmol/L, 1 μmol/L, value with %; for (100%-inhibition rate of cell proliferation) at 1 μmol/L, FaDu: value with %
Summary of the method: as §1

HCT-116 cells [2] = experiment: Inhibition test for sphere-forming ability of cancer cells in the presence of BSA (Test Example 2), HCT-116; settings: HCT-116 cells, in the presence of 5% BSA, cultured 4 days
Method: Human colorectal cancer-derived HCT-116 cells, human colon-adenocarcinoma-derived HT-29 cells, and human pharyngeal cancer-derived FaDu cells were available from American Type Culture Collection (ATCC). HCT-116 cells and HT-29 cells were cultured at 37° C. under 5% CO2 using the McCoy's 5a medium containing 10% fetal bovine serum (FBS) and 1% penicillin/streptomycin, and FaDu cells were cultured at 37° C. under 5% CO2 using the MEM medium containing 10% FBS, 1% non-essential amino acid, 1% sodium pyruvate, 5% bovine serum albumin (BSA), and 1% penicillin/streptomycin. HCT-116 cells, HT-29 cells, and FaDu cells were seeded in a 384 Well Black Clear Bottom Ultra-Low Attachment Microplate (Corning Cat. No. 3827) in an amount of 350-800 cells/well using the DMEM/F12 medium containing 2% B27 supplement (GIBCO), 20 ng/mL epidermal growth factor (EGF) (peprotech), 10 ng/mL basic fibroblast growth factor (bFGF) (peprotech), 5 μg/mL insulin (Sigma), 5% bovine serum albumin (BSA), and 1% penicillin/streptomycin. Each test compound was added into each well to adjust the final concentration of DMSO to 0.1%, and the cells were cultured for 4 days. The number of viable cells in each well was then measured with CellTiter-Glo® Luminescent Cell Viability Assay (Promega) to calculate the concentration of each test compound for 50% inhibition of cell proliferation (Sphere IC50 value; μmol/L).
The experiment of Test Example 2 was performed for each compound of each Example.
The concentration of each test compound for 50% inhibition of cell proliferation (Sphere IC50 value; μmol/L) is shown in the following Table.

HT-29 cells = experiment: Inhibition test for sphere-forming ability of cancer cells (Test Example 1), HT-29; settings: for IC50: concentration for 50% inhibition of cell proliferation, read-out: IC50 (μmol/L) HT-29 (Sphere IC50 value); for viability at 1 µM: read-out: (100%-inhibition rate of cell proliferation) at 1 μmol/L, 1 μmol/L, value with %; for (100%-inhibition rate of cell proliferation) at 1 μmol/L, HT-29: value with %
Summary of the method: as §1

Row | IC50 (HCT-116 cells [1]) [µmol/L] | IC50 (FaDu cells) [µmol/L] | IC50 (HT-29 cells) [µmol/L] | Structure (SMILES) | further results
1 | 0.57 | 0.5 |  | COc1ccc(C(=O)Nc2cn(Cc3ccc(Cl)cc3)cn2)cc1OC [Example 158] | IC50 (HCT-116 cells [2]): 4220 nM
2 | 0.06 | 0.06 |  | COc1ccc(C(=O)Nc2cn(Cc3cc(F)cc(C(F)(F)F)c3)cn2)cc1OC [Example 162] | inhibitory effect on the sphere-forming ability of cancer cells (HCT-116 cells [1]): particularly potent inhibitory effect; IC50 (HCT-116 cells [2]): 510 nM
3 | 0.29 | 0.22 |  | O=C(Nc1cn(Cc2cc(F)c(F)c(F)c2)cn1)c1ccc(CO)cc1 [Example 175] | IC50 (HCT-116 cells [2]): 770 nM
4 | 0.81 | 0.79 | 0.65 | CCOc1ccc(C(=O)Nc2cn(Cc3cccc(OC(F)(F)F)c3)cn2)cn1 [Example 213] | 
5 |  |  |  | Nc1ccc(/C=C/C(=O)Nc2cn(Cc3cccc(Cl)c3)cn2)cn1 [Example 19, (E)-3-(6-Aminopyridin-3-yl)-N-(1-(3-chlorobenzyl)-1H-imidazol-4-yl)acrylamide] | IC50 (HCT-116 cells [1]; Homo sapiens): 0.89 µmol/L; IC50 (HT-29 cells; Homo sapiens): 0.6 µmol/L; IC50 (FaDu cells; Homo sapiens): 0.66 µmol/L
6 |  |  |  | COCCOc1ccc(C(=O)Nc2cn(Cc3cccc(Cl)c3)cn2)cn1 [Example 244, N-[1-(3-Chlorobenzyl)-1H-imidazol-4-yl]-6-(2-methoxyethoxy)nicotinamide] | viability at 1 µM (HCT-116 cells [1]; Homo sapiens): 46.7%; viability at 1 µM (HT-29 cells; Homo sapiens): 27%; viability at 1 µM (FaDu cells; Homo sapiens): 36.7%
7 |  |  |  | O=C(Nc1cn(Cc2cccc(C(F)(F)F)c2)cn1)c1ccc(F)nc1 [Example 226] | (100%-inhibition rate of cell proliferation) at 1 μmol/L, HCT-116 (HCT-116 cells [1]): 45.7%; (100%-inhibition rate of cell proliferation) at 1 μmol/L, HT-29 (HT-29 cells): 91.7%; (100%-inhibition rate of cell proliferation) at 1 μmol/L, FaDu (FaDu cells): 87.9%
8 | 6.71 | 5.44 | 5.51 | Nc1ccc(C(=O)Nc2cn(Cc3cccc(Cl)c3)cn2)cn1 [Example 224] | 
9 | 0.51 | 0.89 | 0.59 | CCOc1ccc(C(=O)Nc2cn(Cc3c(F)ccc(C)c3F)cn2)cn1 [Example 221] | 
10 |  |  |  | Cc1cccc(C(=O)Nc2cn(Cc3cccc(Cl)c3)cn2)n1 [Example 279] | viability at 1 µM (HCT-116 cells [1]; Homo sapiens): 87.4%; viability at 1 µM (HT-29 cells; Homo sapiens): 42.3%; viability at 1 µM (FaDu cells; Homo sapiens): 47.2%
11 |  |  |  | O=C(/C=C/c1cncc(F)c1)Nc1cn(Cc2cccc(Cl)c2)cn1 [Example 42, (E)-N-(1-(3-Chlorobenzyl)-1H-imidazol-4-yl)-3-(5-fluoropyridin-3-yl)acrylamide] | IC50 (HCT-116 cells [1]; Homo sapiens): 0.96 µmol/L; IC50 (HT-29 cells; Homo sapiens): 0.7 µmol/L; IC50 (FaDu cells; Homo sapiens): 5.77 µmol/L
12 | 0.06 | 0.07 |  | COc1ccc(C(=O)Nc2cn(Cc3cc(F)cc(Cl)c3)cn2)cc1OC [Example 159] | inhibitory effect on the sphere-forming ability of cancer cells (HCT-116 cells [1]): particularly potent inhibitory effect; IC50 (HCT-116 cells [2]): 610 nM
13 |  |  |  | COc1ccc(C(=O)Nc2cn(Cc3ccc(Cl)s3)cn2)cc1OC [Example 173] | (100%-inhibition rate of cell proliferation) at 1 μmol/L, HCT-116 (HCT-116 cells [1]): 29.5%; (100%-inhibition rate of cell proliferation) at 1 μmol/L, HT-29 (HT-29 cells): 21.6%; (100%-inhibition rate of cell proliferation) at 1 μmol/L, FaDu (FaDu cells): 21.4%
14 | 0.96 | 6.87 | 5.68 | COc1ccc(C(=O)Nc2cn(Cc3cccc(Cl)c3)cn2)cn1 [Example 202] | 
15 |  |  |  | CC(=O)Nc1ccc(/C=C/C(=O)Nc2cn(Cc3cccc(Cl)c3)cn2)cn1 [Example 20, (E)-3-(6-Acetylaminopyridin-3-yl)-N-(1-(3-chlorobenzyl)-1H-imidazol-4-yl)acrylamide] | IC50 (HCT-116 cells [1]; Homo sapiens): 0.45 µmol/L; IC50 (HT-29 cells; Homo sapiens): 0.01 µmol/L; IC50 (FaDu cells; Homo sapiens): 0.06 µmol/L
16 | 0.09 | 0.06 | 0.07 | COc1ccc(/C=C/C(=O)Nc2cn(Cc3cccc(Cl)c3)cn2)cc1OC [Example 66] | inhibitory effect on the sphere-forming ability of cancer cells (HCT-116 cells [1]): particularly potent inhibitory effect
17 |  |  |  | Cc1ccc(F)c(Cn2cnc(NC(=O)/C(F)=C/c3cccnc3)c2)c1F [Example 116] | IC50 (HCT-116 cells [1]; Homo sapiens): > 10 µmol/L; IC50 (HT-29 cells; Homo sapiens): 0.8 µmol/L; IC50 (FaDu cells; Homo sapiens): 0.93 µmol/L
18 | 7.2 | 6.13 | 3.75 | O=C(/C=C/c1ccccc1Cl)Nc1cn(Cc2cccc(Cl)c2)cn1 [Example 51] | 
19 | 0.82 | 0.09 | 4.93 | Cc1cc(/C=C/C(=O)Nc2cn(Cc3cccc(Cl)c3)cn2)oc1C [Example 93] | inhibitory effect on the sphere-forming ability of cancer cells (HCT-116 cells [1]): particularly potent inhibitory effect

Row | IC50 (HCT-116 cells [1]) [µmol/L] | IC50 (FaDu cells) [µmol/L] | IC50 (HT-29 cells) [µmol/L] | Structure (SMILES) | further results
20 | 7.31 | 8.64 | 3.74 | O=C(Nc1cn(Cc2cccc(C(F)(F)F)c2)cn1)c1ccc(CC(F)F)nc1 [Example 187] | 
21 |  |  |  | O=C(/C=C/c1cncc(Br)c1)Nc1cn(Cc2cccc(Cl)c2)cn1 [Example 45] | IC50 (HCT-116 cells [1]; Homo sapiens): 6.38 µmol/L; IC50 (HT-29 cells; Homo sapiens): 0.88 µmol/L; IC50 (FaDu cells; Homo sapiens): 0.81 µmol/L
22 | 5.31 | 3.52 | 0.9 | O=C(Nc1cn(Cc2cccc(C(F)(F)F)c2)cn1)c1ccc(OCC(F)(F)F)nc1 [Example 214] | 
23 | 0.74 | 0.56 | 0.09 | O=C(/C=C/c1ccc(F)cc1)Nc1cn(Cc2cccc(Cl)c2)cn1 [Example 62] | 
24 | 5.74 | 4.5 | 6.62 | O=C(/C=C/c1cccc(Br)c1)Nc1cn(Cc2cccc(Cl)c2)cn1 [Example 56] | 
25 | 0.95 | 0.06 | 2.66 | O=C(/C=C/c1cccc(O)c1)Nc1cn(Cc2cccc(Cl)c2)cn1 [Example 65] | inhibitory effect on the sphere-forming ability of cancer cells (HCT-116 cells [1]): particularly potent inhibitory effect
26 |  |  |  | Cc1cccc(/C=C/C(=O)Nc2cn(Cc3cccc(OC(F)(F)F)c3)cn2)c1 [Example 110] | IC50 (HCT-116 cells [1]; Homo sapiens): 7.21 µmol/L; IC50 (HT-29 cells; Homo sapiens): 5.67 µmol/L; IC50 (FaDu cells; Homo sapiens): 1.92 µmol/L
27 | 0.92 | 0.74 | 0.74 | O=C(Nc1cc(-c2ccccc2)n[nH]1)c1cn(Cc2cccc(Cl)c2)cn1 [Example 259] | 
28 | 0.04 | < 0.01 |  | COc1ccc(C(=O)Nc2cn(Cc3ccc(F)c(C(F)(F)F)c3)cn2)cc1OC [Example 161] | inhibitory effect on the sphere-forming ability of cancer cells (HCT-116 cells [1]): particularly potent inhibitory effect; IC50 (HCT-116 cells [2]): 410 nM
29 | > 10 | 0.87 | 7.04 | COc1ccc(/C=C/C(=O)Nc2cn(Cc3cccc(Cl)c3)cn2)cc1Cl [Example 80] | 
30 | 0.78 | 0.84 | 0.99 | COc1ccc(C(=O)Nc2cn(Cc3cccc(OC(F)(F)F)c3)cn2)cn1 [Example 212] | 
31 |  |  |  | O=C(/C=C/c1cccc(Oc2ccccc2)c1)Nc1cn(Cc2cccc(C(F)(F)F)c2)cn1 [Example 104] | IC50 (HCT-116 cells [1]; Homo sapiens): 2.09 µmol/L; IC50 (HT-29 cells; Homo sapiens): 0.79 µmol/L; IC50 (FaDu cells; Homo sapiens): 2.7 µmol/L
32 |  |  |  | O=C(Nc1cn(Cc2cccc(OC(F)(F)F)c2)cn1)/C(F)=C/c1cccnc1 [Example 111] | IC50 (HCT-116 cells [1]; Homo sapiens): 9.31 µmol/L; IC50 (HT-29 cells; Homo sapiens): 0.83 µmol/L; IC50 (FaDu cells; Homo sapiens): 0.99 µmol/L
33 | 0.59 | 0.68 | 0.52 | O=C(/C=C/c1ccc(O)cc1)Nc1cn(Cc2cccc(Cl)c2)cn1 [Example 84] | 
34 | 7.78 | 0.86 | 0.79 | O=C(/C=C/c1ccc(Cl)c(Cl)c1)Nc1cn(Cc2cccc(Cl)c2)cn1 [Example 59] | 
35 | 7.51 | 6.15 | 4.5 | Cc1ccncc1/C=C/C(=O)Nc1cn(Cc2cccc(Cl)c2)cn1 [Example 91] | 
36 | 0.07 | 0.07 |  | COc1ccc(C(=O)Nc2cn(Cc3ccc(F)c(Cl)c3)cn2)cc1OC [Example 160] | inhibitory effect on the sphere-forming ability of cancer cells (HCT-116 cells [1]): particularly potent inhibitory effect; IC50 (HCT-116 cells [2]): 610 nM
37 |  |  |  | Nc1ccc(/C=C/C(=O)Nc2cn(Cc3cccc(Cl)c3)cn2)cc1 [Example 3, (E)-3-(4-Aminophenyl)-N-(1-(3-chlorobenzyl)-1H-imidazol-4-yl)acrylamide Dihydrochloride] | IC50 (HCT-116 cells [1]; Homo sapiens): 6.76 µmol/L; IC50 (HT-29 cells; Homo sapiens): 3.58 µmol/L; IC50 (FaDu cells; Homo sapiens): 3.13 µmol/L
38 |  |  |  | CS(=O)(=O)c1ccc(/C=C/C(=O)Nc2cn(Cc3cccc(Cl)c3)cn2)cc1 [Example 13] | IC50 (HCT-116 cells [1]; Homo sapiens): 8.72 µmol/L; IC50 (HT-29 cells; Homo sapiens): 0.74 µmol/L; IC50 (FaDu cells; Homo sapiens): 2.84 µmol/L
